Test results taken from patent publication US20200223889A1, “Bicyclic Compounds Capable of Binding to Melanocortin 4 Receptor” (Novo Nordisk A/S, priority 2017, published 2020).
Where two headings read alike, the source gives them in different places. Starred links: 1 amine or outer side, 2 acyl side, 3 side chain; linkers in the order of their positions; H or OH if unused. Positions of bridges follow the written chain, without caps; N, C: chain ends. Non-standard residues stand in square brackets, D forms with d. Residues, ends and D or L forms follow the SMILES beside them. Pen = CC(C)(S)[C@H](N)C(=O)O; d(hCys) = N[C@H](CCS)C(=O)O; Orn = NCCC[C@H](N)C(=O)O; Thz = O=C(O)[C@@H]1CSCN1; X1 = C(CN[*:2])CS[*:1]

Assays:
[1] = target: T1, human MC4R (Homo sapiens, UniProt P32245); experiment: Functional cAMP assay (CisBio HTRF) in BHK cells expressing human MC4R; format: cell-based; settings: for MC1R/MC4R cAMP EC50 ratio: MC1R cAMP EC50 divided by MC4R cAMP EC50
T1 construct: expressed in transfected cells
Protocol: In order to assess the potency of the compounds on human MC1R and human MC4R cAMP signalling was measured.
cAMP induction was measured by c-AMPdynamic2 assay, HTRF 62AM4PEC system from CisBio for the human MC1R and human MC4R according to the protocol provided by the vendor. BHK cells expressing the human MC1 or MC4 receptor were generated by stable transfection with expression vectors encoding the cDNA of either MC1R or MC4R.
In details; 25 μl compound—or standard solution were added in the respective wells. Compound was reconstituted in buffer (DMEM w/o phenol red, 10 mM
Hepes, lx Glutamine, 0.1% OV-albumin1, 1 mM IBMX) and serially diluted starting at 2 μM, 10-fold seven times. Dilutions were carried out in the same aforementioned buffer to the desired working concentration ranges (2× higher than the final concentration). 25 μl cell solution was then added and allowed to incubate for 30 min while lightly shaking, at 25° C. […] The provided components for the assay were reconstituted according to the CisBio assay protocol “3.1 supplied reagents and preparation procedure” in MilliQ purification system H2O and diluted 1:20 in lysis buffer. 25 μl cAMP-d2 and 25 μl Cryptate conjugate were added to all wells.
Plates were centrifuged at 1500 rpm for 30 sec and incubated for 1 h, lightly shaking, at 25° C. in a hotel stacker. The plates were read on Mithras LB 940 provided by Berthold Technologies The data were analysed by non-linear regression analysis of binding curves, using the Windows™ program GraphPad™ Prism (GraphPad Software, USA).
The latter is used when no full curve can be obtained in the concentration ranges indicated above.

[2] = target: T1, human MC4R; experiment: 125NDP-α-MSH competitive binding to membranes of BHK cells expressing human MC4 receptor (filtration assay); settings: human MC4R, BHK cell membranes, 125NDP-α-MSH radioligand; read-out: MC4R binding Ki
Protocol: In Vitro ^125NDP-α-MSH Binding to Recombinant BHK Cells Expressing Human MC4 Receptor (Filtration Assay)
In order to assess the binding affinity of the selected compounds for the human MC4R competitive binding assays was performed with radiolabeled NDP-alpha MSH (^125NDP-α-MSH).
The assay was performed in 96-well filterplates (Unifilter) using BHK cells stably expressing the human MC4 receptor.
The BHK cell membranes were prepared from frozen or fresh cells that were homogenized in 20 mM HEPES pH 7.1, 5 mM MgCl2, 1 mg/ml bacitracin (buffer 1) and centrifuged at 15000 rpm at 4° C., 10 min in a Sorvall RC 5B plus, SS-34 rotor. The supernatant was discarded, and the pellets were re-suspended in buffer 1, homogenized and centrifuged two more times. The final pellets were re-suspended in buffer 1 and the protein concentration was measured and adjusted with buffer 1 to 5 mg/ml and the membrane preparation was kept at −80° C. until assay. The assay was run on a dilution of this cell membrane suspension without any further preparation. The suspension was diluted to give maximally 10% specific binding, i.e. to approx. 50-100 fold dilution, optimized after each membrane preparation. The assay was performed in a total volume of 200 μl: 50 μl of cell suspension, 50 μl of ^125NDP-α-MSH (apx. […] in final concentration), 50 μl of test compound and 50 μl binding buffer were mixed and incubated for 2 h at 25° C. (binding buffer: 25 mM HEPES, pH 7.0, 1 mM CaCl2), 1 mM MgSO4, 1 mM EGTA, 0.005% Tween™ 20 and 0.1% HSA or, alternatively, 0.1% ovalbumin (Sigma; catalogue No. A-5503)). Test compounds were dissolved in 100% DMSO and diluted in binding buffer in a dose range from 1 μM to 0.001 nM. Radiolabelled ligand and membranes were diluted in binding buffer. The incubation was stopped by dilution with 8×100 μl ice-cold 0.9% NaCl. The radioactivity retained on the filters was counted using a Packard Topcounter. The data were analysed by non-linear regression analysis of binding curves, using the Windows™ program GraphPad™ Prism (GraphPad Software, USA).

[3] = BHK cells expressing human MC4R, '>' = highest dose used with no response, read-out: MC4R cAMP EC50

T1 sequence (P32245 whole entry): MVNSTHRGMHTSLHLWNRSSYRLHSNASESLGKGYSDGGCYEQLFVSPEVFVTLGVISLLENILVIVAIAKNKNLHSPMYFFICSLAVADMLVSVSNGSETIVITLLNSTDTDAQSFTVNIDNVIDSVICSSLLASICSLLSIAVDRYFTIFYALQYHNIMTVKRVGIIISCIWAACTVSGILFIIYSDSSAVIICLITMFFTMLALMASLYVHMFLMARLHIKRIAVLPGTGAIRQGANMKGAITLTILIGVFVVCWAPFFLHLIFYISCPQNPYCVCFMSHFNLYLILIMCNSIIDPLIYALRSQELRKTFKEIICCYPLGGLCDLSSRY

Row | Structure (SMILES) | EC50 [1, 3] [nM] | MC1R/MC4R cAMP EC50 ratio [1] | Ki [2] [nM] | EC50 [1] [nM]
1 | N=C(N)NCCC[C@@H]1NC(=O)[C@@H](Cc2ccccc2)NC(=O)[C@H](Cc2c[nH]cn2)NC(=O)CNC(=O)[C@@H]2CSSC[C@H](NC(=O)[C@H](Cc3c[nH]c4ccccc34)NC1=O)C(=O)NCC(=O)N[C@@H](Cc1c[nH]cn1)C(=O)N[C@H](Cc1ccccc1)C(=O)N[C@@H](CCCNC(=N)N)C(=O)N[C@@H](Cc1c[nH]c3ccccc13)C(=O)N2 [Chem. 2, c[c[Cys-Gly-His-D-Phe-Arg-Trp-Cys]- Gly-His-D-Phe-Arg-Trp]] (cyclo(CGH[dF]RWCGH[dF]RW); disulfide 1-7) | 0.01 | 154 | 0.07 | 
2 | CC(=O)N[C@@H](C)C(=O)N[C@@H](Cc1c[nH]cn1)C(=O)N[C@H](Cc1ccccc1)C(=O)N[C@@H](CCCNC(=N)N)C(=O)N[C@@H](Cc1c[nH]c2ccccc12)C(=O)N[C@@H]1CCSSCCCNC(=O)[C@H](Cc2c[nH]c3ccccc23)NC(=O)[C@H](CCCNC(=N)N)NC(=O)[C@@H](Cc2ccccc2)NC(=O)[C@H](Cc2c[nH]cn2)NC(=O)[C@H](C)NC1=O [Chem. 3, c[c[HCys-Ala-His-D-Phe-Arg-Trp- HCys]-Ala-His-D-Phe-Arg-Trp]] (Ac-AH[dF]RW[d(hCys)]AH[dF]RW; linker 6-C via X1) | 0.26 | 28 | 0.42 | 
3 | CC(=O)N[C@@H](Cc1c[nH]cn1)C(=O)N[C@H](Cc1ccccc1)C(=O)N[C@@H](CCCNC(=N)N)C(=O)N[C@@H](Cc1c[nH]c2ccccc12)C(=O)N[C@H](C)C(=O)N[C@@H]1CCSSCCCNC(=O)[C@@H](C)NC(=O)[C@H](Cc2c[nH]c3ccccc23)NC(=O)[C@H](CCCNC(=N)N)NC(=O)[C@@H](Cc2ccccc2)NC(=O)[C@H](Cc2c[nH]cn2)NC1=O [Chem. 6, c[c[Cys-His-D-Phe-Arg-Trp-D-Ala- Cys]-His-D-Phe-Arg-Trp-D-Ala]] (Ac-H[dF]RW[dA][d(hCys)]H[dF]RW[dA]; linker 6-C via X1) | 0.06 | 39 | 0.19 | 
4 | C[C@@H]1NC(=O)[C@H](C)NC(=O)[C@H](Cc2c[nH]c3ccccc23)NC(=O)[C@H](CCCNC(=N)N)NC(=O)[C@@H](Cc2ccccc2)NC(=O)[C@H](Cc2c[nH]cn2)NC(=O)[C@H](C)NC(=O)[C@H](C)NC(=O)[C@H](Cc2c[nH]c3ccccc23)NC(=O)[C@H](CCCNC(=N)N)NC(=O)[C@@H](Cc2ccccc2)NC(=O)[C@H](Cc2c[nH]cn2)NC1=O [Chem. 7, c[Ala-Ala-His-D-Phe-Arg-Trp-Ala-Ala- His-D-Phe-Arg-Trp]] (cyclo(AAH[dF]RWAAH[dF]RW)) | 0.06 | 76 | 0.47 | 
5 | C[C@@H]1NC(=O)[C@@H]2CSSC[C@H](NC(=O)[C@H](CCCNC(=N)N)NC(=O)[C@H](Cc3c[nH]c4ccccc34)NC(=O)[C@H](CCCNC(=N)N)NC(=O)[C@@H](Cc3ccccc3)NC(=O)[C@H](Cc3c[nH]cn3)NC1=O)C(=O)N[C@@H](C)C(=O)N[C@@H](Cc1c[nH]cn1)C(=O)N[C@H](Cc1ccccc1)C(=O)N[C@@H](CCCNC(=N)N)C(=O)N[C@@H](Cc1c[nH]c3ccccc13)C(=O)N[C@@H](CCCNC(=N)N)C(=O)N2 [Chem. 69, c[c[Cys-Ala-His-D-Phe-Arg-Trp-Arg- Cys]-Ala-His-D-Phe-Arg-Trp-Arg]] (cyclo(AH[dF]RWRCAH[dF]RWRC); disulfide 7-14) |  | 5 |  | 
6 | C[C@@H]1NC(=O)[C@@H]2CSSC[C@H](NC(=O)[C@H](CCCNC(=N)N)NC(=O)[C@H](CCCNC(=N)N)NC(=O)[C@H](CCC(=O)O)NC(=O)[C@H](CCCNC(=N)N)NC1=O)C(=O)N1CSC[C@H]1C(=O)N[C@@H](Cc1c[nH]cn1)C(=O)N[C@H](Cc1ccccc1)C(=O)N[C@@H](Cc1c[nH]cn1)C(=O)N[C@@H](Cc1c[nH]c3ccccc13)C(=O)N2 [Chem. 113, c[c[Cys-THAZ-His-D-Phe-His-Trp- Cys]-Ala-Arg-Glu-Arg-Arg]] (cyclo(ARERRC[Thz]H[dF]HWC); disulfide 6-12) |  | 2112 |  | 0.02
7 | C[C@@H]1NC(=O)[C@H](C)NC(=O)[C@H](CCCN)NC(=O)[C@H](CCCCN)NC(=O)[C@@H]2CSSC[C@H](NC(=O)[C@H](Cc3c[nH]c4ccccc34)NC1=O)C(=O)N1CSC[C@H]1C(=O)N[C@@H](Cc1c[nH]cn1)C(=O)N[C@H](Cc1ccccc1)C(=O)N[C@@H](Cc1c[nH]cn1)C(=O)N[C@@H](Cc1c[nH]c3ccccc13)C(=O)N2 [Chem. 115, c[c[Cys-THAZ-His-D-Phe-His-Trp-C ys]-Lys-Orn-Ala-Ala-Trp]] (cyclo(AAWC[Thz]H[dF]HWCK[Orn]); disulfide 4-10) |  | 1340 |  | 0.1
8 | C[C@@H]1NC(=O)[C@H](C)NC(=O)[C@H](CCCN)NC(=O)[C@H](CCCN)NC(=O)[C@@H]2CSSC[C@H](NC(=O)[C@H](Cc3c[nH]c4ccccc34)NC1=O)C(=O)N1CSC[C@H]1C(=O)N[C@@H](Cc1c[nH]cn1)C(=O)N[C@H](Cc1ccccc1)C(=O)N[C@@H](Cc1c[nH]cn1)C(=O)N[C@@H](Cc1c[nH]c3ccccc13)C(=O)N2 [Chem. 116, c[c[Cys-THAZ-His-D-Phe-His-Trp- Cys]-Orn-Orn-Ala-Ala-Trp]] (cyclo(AAWC[Thz]H[dF]HWC[Orn][Orn]); disulfide 4-10) |  | 1927 |  | 0.12
9 | C[C@@H]1NC(=O)[C@H](C)NC(=O)[C@H](CCCCN)NC(=O)[C@H](CCCCN)NC(=O)[C@H]2NC(=O)[C@H](Cc3c[nH]c4ccccc34)NC(=O)[C@H](Cc3c[nH]cn3)NC(=O)[C@@H](Cc3ccccc3)NC(=O)[C@H](Cc3c[nH]cn3)NC(=O)[C@@H]3CSCN3C(=O)[C@H](CSSC2(C)C)NC(=O)[C@H](Cc2c[nH]c3ccccc23)NC1=O [Chem. 117, c[c[Cys-THAZ-His-D-Phe-His-Trp- Pen]-Lys-Lys-Ala-Ala-Trp]] (cyclo(AAWC[Thz]H[dF]HW[Pen]KK); disulfide 4-10) |  | 841 |  | 0.2
10 | N=C(N)NCCC[C@@H]1NC(=O)[C@H](CCCCN)NC(=O)[C@@H]2CSSC[C@H](NC1=O)C(=O)N1CSC[C@H]1C(=O)N[C@@H](Cc1c[nH]cn1)C(=O)N[C@H](Cc1ccccc1)C(=O)N[C@@H](Cc1c[nH]cn1)C(=O)N[C@@H](Cc1c[nH]c3ccccc13)C(=O)N2 [Chem. 118, c[c[Cys-THAZ-His-D-Phe-His-Trp- Cys]-Lys-Arg]] (cyclo(CKRC[Thz]H[dF]HW); disulfide 1-4) |  | 1240 |  | 
11 | C[C@@H]1NC(=O)[C@@H]2CSSC[C@H](NC(=O)[C@H](CCCNC(=N)N)NC(=O)[C@H](CCCN)NC(=O)[C@H](CCC(=O)O)NC(=O)[C@H](CCCN)NC1=O)C(=O)N1CSC[C@H]1C(=O)N[C@@H](Cc1c[nH]cn1)C(=O)N[C@H](Cc1ccccc1)C(=O)N[C@@H](Cc1c[nH]cn1)C(=O)N[C@@H](Cc1c[nH]c3ccccc13)C(=O)N2 [Chem. 119, c[c[Cys-THAZ-His-D-Phe-His-Trp- Cys]-Ala-Orn-Glu-Orn-Arg]] (cyclo(A[Orn]E[Orn]RC[Thz]H[dF]HWC); disulfide 6-12) |  | 1660 |  | 0.06
12 | C[C@@H]1NC(=O)[C@@H]2CSSC[C@H](NC(=O)[C@H](CCCNC(=N)N)NC(=O)[C@@H](CCCCN)NC(=O)[C@@H](CCCCN)NC(=O)[C@H](Cc3c[nH]cn3)NC1=O)C(=O)N1CCC[C@H]1C(=O)N[C@@H](Cc1c[nH]cn1)C(=O)N[C@H](Cc1ccccc1)C(=O)N[C@@H](Cc1c[nH]cn1)C(=O)N[C@@H](Cc1c[nH]c3ccccc13)C(=O)N2 [Chem. 121, c[c[Cys-Pro-His-D-Phe-His-Trp-Cys]- Ala-His-D-Lys-D-Lys-Arg]] (cyclo(AH[dK][dK]RCPH[dF]HWC); disulfide 6-12) | 0.24 | 786 |  | 
